Counter-ions that a name gives are not always drawn. Marks after values point to notes of the source that are not given here.
Key:
[1] = system: Male Sprague-Dawley (HLA) rats; assay: Clonidine hypoactivity (CH) test; assay type: in vivo
Protocol: The suppression can be prevented by administration of an alpha2-antagonist as described by J. Malick et al. in Federation Proceedings, Vol. 40, page 244 (1981), a publication of the Federation of the American Societies of Experimental Biology. Male Sprague-Dawley (HLA) rats, weighing 140 to 180 g, were used throughout these studies. Spontaneous locomotor activity was measured in Animex activity monitors supplied by Columbus Instruments, Columbus, Ohio; groups of three animals were placed in a chamber of clear "Plexiglas", 26.5 x 26.5 x 15 cm for the test. ("Plexiglas" is a trademark of Rohm & Haas Co., Philadelphia, Pennsylvania, USA, for thermoplastic polymethyl methacrylate type polymers and plastic sheets). All animals received two injections prior to testing according to the following paradigm: vehiclec (HPMC) or antagonist was administered subcutaneously 30 minutes prior to intraperitoneal administration of either HPMC or clonidine. […] Animals were placed into the motor activity chambers as soon as possible after the second injection and total activity counts were recorded for 20 minutes. Five groups of 3 rats each were used for each dose of drug or control.

DBA-2 mice = assay: Audiogenic seizure (AS): reversal of clonidine protection; assay type: in vivo; conditions: for Minimal effective doses (MED) AS (i.p.): one hour before clonidine 0.4 mg/kg i.p., sound 30 minutes later, mice
Description: Audiogenic Seizure (AS): Sound-produced seizures in mice are blocked by clonidine, an alpha2- agonist, and such a model may be used to measure the activity of a particular compound as an alpha2- antagonist, specifically as it decreases clonidine activity. The activity of clonidine in this regard and its relationship to alpha2-receptors is described by R. Horton et al. in the Journal of Pharmacology and Experimental Therapeutics, Vol. 214, No. 2, pages 437-442 (1980). DBA-2 mice (20-22 days of age; 8 to 12 g) are used in these studies. Mice are tested individually in a glass bell jar (112 inches high and 12 inches in diameter) which is placed in a sound-attenuated chamber. An electric bell is used to generate a noise level of 116-118 decibels. Mice are allowed to acclimate to the chamber for 30 seconds and are then exposed to the sound for 60 seconds. The auditory stimulation causes a convulsive episode characterized by wild running, clonus, tonus and death. […] Thus, the test compound is dissolved in a hydroxypropylmethylcellulose (HPMC) vehicle consisting of 0.1% Tween° 80 and 0.5% hydroxypropylmethylcellulose in an 0.9% by weight sodium chloride aqueous solution and injected intraperitoneally (i.p.) into the mouse. (Tween^O is a registered trademark of ICI Americas Inc., Wilmington, Delaware, USA, for emulsifiers, wetting and dispersing agents. Tween@ is polyoxyethylene sorbitan mono-oleate). After one hour, the mouse is challenged with clonidine intraperitoneally at 0.4 mg/kg of body weight. After a further 30 minutes, the mouse is subjected to a tone from a high intensity bell and the mouse is observed for seizure activity. The activity is scored on the basis of whether clonic and/or tonic seizures occur.

[2] = molecular target: T1, alpha2 binding site in human platelets (Homo sapiens, UniProt P08913); assay: Tritiated yohimbine binding assay
T1 construct: from tissue; host or cells: human platelets (washed and disrupted membrane preparation)
T1 sequence (P08913 1-465): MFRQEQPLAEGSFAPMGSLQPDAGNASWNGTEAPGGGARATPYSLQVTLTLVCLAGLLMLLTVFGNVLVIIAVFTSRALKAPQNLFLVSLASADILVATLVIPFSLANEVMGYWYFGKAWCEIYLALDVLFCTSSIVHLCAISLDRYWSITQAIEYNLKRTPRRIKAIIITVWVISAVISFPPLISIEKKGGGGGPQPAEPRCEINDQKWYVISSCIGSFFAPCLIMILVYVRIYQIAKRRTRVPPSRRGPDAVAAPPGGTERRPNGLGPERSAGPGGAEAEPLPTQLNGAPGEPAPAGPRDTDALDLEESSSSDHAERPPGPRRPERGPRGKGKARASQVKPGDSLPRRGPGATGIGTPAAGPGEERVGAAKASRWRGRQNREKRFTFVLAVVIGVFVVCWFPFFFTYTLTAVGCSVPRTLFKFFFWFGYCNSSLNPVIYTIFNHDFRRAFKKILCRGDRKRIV
Protocol: The test is conducted as described by M. Daiguji et al. in Life Sciences, Vol. 28, pages 2705-2717 (1981). Platelets are washed and disrupted as described in the Daiguji article. The amount of platelet used per assay varies between 0.2 to 1.5 mg of protein. […] For the determination of non-specific binding, 20 microliters of 10 millimolar norepinephrine is used. The incubation is conducted at 25°C for 60 minutes, after which the membranes are filtered under vacuum on a GF/B filter. The filters are then counted in a scintillation counter. […] It is known that if an alpha2-agonist or alpha2-antagonist binds to alpha2 sites, such will be displaced more easily by a compound which is also of the same type, i.e., an agonist or antagonist, respectively.

locus coeruleus = assay: Locus coeruleus test (single unit firing, clonidine reversal); assay type: in vivo, Male Sprague-Dawley rats; conditions: anesthetized rats; for clonidine required to re-suppress firing: after firing was reinstated by the test agent, i.v.; for dose that reinstated firing: i.v. infusion after clonidine 10 micrograms/kg i.v. suppressed firing
Protocol: Locus Coeruleus Test: The locus coeruleus test for alpha2-antagonist activity is predictive of anti- depressant activity as described by G. Engberg et al. in Communications in Psychopharmacology, Vol. 4, pages 233-239 (1980). The alphas-antagonistic properties of a test agent are determined as follows: Male Sprague-Dawley rats (280-320 g) are anesthetized with sodium pentobarbitol (60 mg/kg of body weight, i.p.) and placed in a stereotaxic instrument to allow precise location of the electrode in the locus coeruleus. Extracellular single unit activity is recorded from the locus coeruleus using stainless steel or tungsten microelectrodes (2-5 megohm impedance). Extracellular potentials are counted during successive 10 second intervals and recorded on a digital counter. The baseline firing rate of each neuron is determined for 3 to 5 minutes before drug administration. Drugs are injected intravenously in a volume of 0.1 ml; data are collected for 2 to 3 minutes between multiple drug injections. The ability of a test agent to reverse the suppressant effects of clonidine, and the total cumulative dose of clonidine required to override the test agent, are indicative of alpha2-antagonistic properties. In this test, 10 micrograms/kg of body weight of clonidine were administered by infusion intravenously to suppress firing.

mouse = assay: Mouse learned helplessness swimming test (MLHS); assay type: in vivo; conditions: one hour before test, time in tonic immobility
Protocol: During testing, a mouse is gently placed in the water and tested for a total of 6 minutes as follows: during the first 2 minutes the animal quickly "learns" there is no escape and spends the vast majority of the last 4 minutes floating (tonic immobility). Nothing is recorded during the first 2 minutes (learning period) but the time in seconds spent in tonic immobility during the last 4 minutes of the session is recorded. […] Control (vehicle-treated) groups are run each day and drug-treated groups are compared to these via a Student's t-test.

Compound | lowest dose that consistently produced a statistically significant reduction in motor activity ([1]; i.p., rats, pilot studies) | mice protected from audiogenic seizures (DBA-2 mice; 0.4 mg/kg of body weight, i.p., 30 minutes prior to auditory stimulation) | IC50 [2] | Minimal effective doses (MED) CH (s.c.) ([1]; rat, in vivo) | Minimal effective doses (MED) AS (i.p.) (DBA-2 mice) | clonidine required to re-suppress firing (locus coeruleus) | dose that reinstated firing (locus coeruleus) | Minimal effective doses (MED) MLHS (i.p.) (mouse) | Minimal effective doses (MED) CH (s.c.) ([1]; s.c., 30 minutes before clonidine 0.01 mg/kg i.p., rats, activity counts for 20 minutes)
Clc1cccc(Cl)c1N=C1NCCN1 [Clonidine, reference compound] | 0.01 mg/kg of body weight | 100% | – | – | – | – | – | – | –
c1ccc2c(c1)CCC(C1=NCCN1)O2 (centres unmarked) [Example 1c, 2-(2-Imidazolin-2-yl)chroman] | – | – | 34 nM | 0.3 mg/kg of body weight | 5 mg/kg of body weight | 1280 micrograms/kg of body weight | reinstated firing at the same level | 10 mg/kg of body weight | –
Fc1cccc2c1CCC(C1=NCCN1)O2 (centres unmarked) [Example 2e, 2-(2-Imidazolin-2-yl)-5-fluorochroman] | – | – | 3.8 nM | 0.5 mg/kg of body weight | 1 mg/kg of body weight | – | reinstated firing at the same level | 30 mg/kg of body weight | –
Fc1cccc2c1OC(C1=NCCN1)CC2 (centres unmarked) [Example 3e, 2-(2-Imidazolin-2-yl)-8-fluorochroman] | – | – | 53.5 nM | – | ~3* mg/kg of body weight | – | – | 30 mg/kg of body weight | –
c1ccc2c(c1)OCC(C1=NCCN1)O2 (centres unmarked) [RX 781094, 2-[2-(1,4-benzodioxanyl)]-22imidazoline hydrochloride, reference compound] | – | – | – | – | 2.5 mg/kg of body weight | – | – | – | 0.03 mg/kg of body weight
COC(=O)[C@@H]1[C@H]2C[C@H]3c4[nH]c5ccccc5c4CCN3C[C@@H]2CC[C@@H]1O [yohimbine, reference compound] | – | – | – | – | – | 160 micrograms/kg of body weight | 2.0 mg/kg of body weight | – | –
